Measured values from paper PMC12383012 (Antioxidants, 2025).
“Also recorded” adds a separate entry of the source.

What was measured:
[1] = Free-radical-scavenging assay (DPPH method); settings: for % AA (radical-scavenging activity): compound concentration 100 μM; for EC50: read-out: AA EC50
Method: The percentage of radical-scavenging activity (%AA, antioxidant capacity) of the RIV hybrids was first determined by the 2,2-diphenyl-1-picrylhydrazyl (DPPH) method using a compound concentration of 100 μM. […] Each calibration point was kept 30 min in darkness, and afterwards, the absorbance was measured at 517 nm. The corresponding antioxidant activity (%AA) was calculated using the equation %AA=ADPPH−Aligand/ADPPH×100. From the plot of %AA versus ligand concentration, EC50 was determined. Three independent experiments were performed, and a statistical analysis was conducted by a one-way analysis of variance (ANOVA) with the significance threshold set at p < 0.05.
The RIV hybrids were screened for their radical-scavenging activity by using the DPPH method. These assays were conducted in two stages: first, preliminary analyses were performed for all the compounds to evaluate the percentage of radical-scavenging activity by using a compound concentration of 100 μM. Afterwards, the compounds showing more than 50% antioxidant activity (AA), under those conditions, were further assessed to evaluate the respective EC50 values.

[2] = target: T1, electric eel acetylcholinesterase (eeAChE) (Electrophorus electricus, UniProt O42275); experiment: Acetylcholinesterase inhibition (adapted Ellman's method); type: biochemical; settings: read-out: AChE Inhib IC50
T1 construct: purchased
Method: (§1) The enzyme inhibition of electric eel acetylcholinesterase (eeAChE) and equine butyrylcholinesterase (eqBChE) was performed according to an adaptation of Elmman’s method. Stock solutions of 1 mg of each compound in 1 mL MeOH were prepared, and adequate dilutions were further made for each ligand. A control measurement (5 replicates without a ligand) and a calibration curve of 5 points with 3 replicates per point were conducted. Each solution included fixed volumes of 4-(2-hydroxyethyl)-1-piperazine-ethanesulfonic acid (HEPES) and cholinesterase (eeAChE or eqBChE), with different volumes of ligand solution. A blank solution containing HEPES and MeOH was also prepared at the same time. After 15 min of reaction, […] (AChI) or butyrylcholine iodide (BChI) and 5,5’-dithiobis-(2-nitrobenzoic acid) (DTNB) were added to both solutions contained in spectrophotometer cuvettes, and the absorbance at 405 nm was recorded for 5 min (time interval = 1 s, slid width = 1 nm). The slope for each calibration point (absorbance versus reaction time) was determined, and the percent inhibition was calculated by using the equation: %Inhibition=100−(vi/v0×100). where vi is the reaction rate (slope) for each point of the calibration with the ligand, and v0 is the initial reaction rate (slope) for the control point (without ligand). Finally, the five-point linear regression (10–50 µL of ligand solution) corresponding to the percentage of enzyme inhibition vs. the compound concentration allowed for the determination of the half maximal inhibitory concentration (IC50, µM) (compound concentration for which enzyme activity is reduced to half). Experiments were performed twice for each ligand. Statistical analysis was performed by a one-way analysis of variance (ANOVA) with a significance threshold set at p < 0.05.

[3] = tested on: SH-SY5Y human neuroblastoma cell line; experiment: Cell viability dose-response screening (MTT); type: cell-based; settings: 24 h
Method: (§2) Cell viability was assessed using the colorimetric MTT (3-(4,5-dimethylthiazol-2-yl)-2,5-diphenyltetrazolium bromide) assay, as previously described.
(§3) The compounds’ solutions (4AY1-6, 4BY1-3, and 4CY1) were prepared in DMSO to create stock solutions at a concentration of 25 mM, which were then stored at −20 °C. A concentration range from 0.5 µM to 20 µM was screened to identify the highest non-toxic dose. The SH-SY5Y human neuroblastoma cell line (ATCC-CRL-2266) was grown in Dulbecco’s modified Eagle’s medium (DMEM) (Thermo Fisher Scientific-Gibco, Waltham, MA, USA) supplemented with 10% heat-inactivated fetal calf serum, 50 U/mL penicillin, and 50 µg/mL streptomycin at 37 °C in a 5% CO2 atmosphere. The cells were seeded at a density of 0.1 × 10^6 cells/mL (when 48-well plates were used) or 0.15 × 10^6 cells/mL (when 24-well plates were used) one day before the experiment commenced. Following the seeding, the cells were treated with the selected concentrations of compounds for 24 h. After treatment, the cells were washed with PBS and incubated with 150 µL (in 48-well plates) or 200 µL (in 24-well plates) of MTT (0.5 mg/mL) for 2 h at 37 °C with 5% CO2. During this incubation, cellular dehydrogenases converted MTT into formazan crystals, which were subsequently dissolved in 150 µL (in 48-well plates) or 200 µL (in 24-well plates) of 0.04 M HCl/isopropanol, and the absorbance was measured at 570 nm.

Aβ1–42 = target: T2, Aβ1–42 (Homo sapiens, UniProt P05067); experiment: Inhibition of Aβ1–42 self-aggregation (ThT fluorescence); type: biochemical; settings: read-out: % Aβ42 Self-Agg Inhib; for inhibition at 20 µM: 24 h
T2 construct: the Aβ1–42 peptide (Shanghai Royobiotech Co., Ltd., Shanghai, China); purchased Shanghai Royobiotech Co., Ltd
Method: Firstly, the Aβ1–42 peptide (Shanghai Royobiotech Co., Ltd., Shanghai, China) was treated with 1,1,1,3,3,3-hexafluoropropan-2-ol (HFIP) and then dissolved in a CH3CN/Na2CO3 (300 μM)/NaOH (250 μM) (48.3:48.3:4.3, v/v/v) mixture in order to obtain a stable stock solution (500 μM).
Solutions of 1 mg of the assayed compounds in 2 mL of 1:1 (v/v) DMSO/MeOH (0.5 mg/mL) medium were prepared and then properly diluted with phosphate buffer (0.215 M, pH 8.0) to obtain a 120 μM final concentration. The Aβ1–42 self-aggregation inhibition assays were made based on a reported method, involving the fluorescence emission of thioflavin T (ThT). So, Aβ1–42 (40 μM) was incubated at 37 °C for 24 h in phosphate buffer and in the presence or absence of each ligand (40 μM for all compounds but 4AY4 and 4CY1, for which 20 μM was used). Then, […] 5 μM ThT in 50 mM glycine-NaOH (pH 8.5) buffer were added to each sample before transferring the samples to a 96-well microplate. Blank samples were also prepared without Aβ1–42. The ThT fluorescence was measured (446 and 485 nm excitation and emission wavelengths, respectively), and the percent of self-aggregation inhibition was determined by the equation:I% = 100 − (IFi/IF0 × 100) where IFi and IF0 are the fluorescence intensities, in the presence and the absence of the assayed compound, subtracted from the fluorescence intensities due to the respective blanks. The calculated values were obtained as the mean ± SEM of four different experiments conducted in duplicate. Statistical analysis was performed by a one-way analysis of variance (ANOVA) with a significance threshold set at p < 0.05.

[4] = target: T3, equine butyrylcholinesterase (eqBChE) (Equus caballus, UniProt P81908); experiment: Butyrylcholinesterase inhibition (adapted Ellman's method); type: biochemical; settings: for IC50: eqBChE, read-out: BChE Inhib IC50; for SI (selectivity index): SI = IC50 (AChE)/IC50 (BChE)
T3 construct: purchased
Method: as §1

[5] = tested on: SH-SY5Y human neuroblastoma cell line; experiment: Protection against iron/ascorbate-induced toxicity (MTT); type: cell-based; settings: 1 h pre-treatment at highest nontoxic concentration, then 24 h with Fe/Asc
Method: as §2, §3
To evaluate the compounds’ protective effects against toxicity induced by Aβ1–42 or iron/ascorbate, the cells were pre-treated with each compound for one hour before adding Aβ1–42 or iron/ascorbate, followed by an additional 24-h incubation. Aβ1–42 (Bachem, Torrance, CA, USA) was prepared in sterile water to create a 443 µM stock solution and was added to the cells at a final concentration of 1 µM. Ferrous sulfate and L-ascorbic acid (Sigma Chemical Co., St. Louis, MO, USA) were introduced into the medium at final concentrations of 5 mM and 2.5 mM, respectively. […]

[6] = dose given for the Aβ1–42 experiments
[7] = dose given for the iron/ascorbate experiments

T3 sequence (P81908 whole entry): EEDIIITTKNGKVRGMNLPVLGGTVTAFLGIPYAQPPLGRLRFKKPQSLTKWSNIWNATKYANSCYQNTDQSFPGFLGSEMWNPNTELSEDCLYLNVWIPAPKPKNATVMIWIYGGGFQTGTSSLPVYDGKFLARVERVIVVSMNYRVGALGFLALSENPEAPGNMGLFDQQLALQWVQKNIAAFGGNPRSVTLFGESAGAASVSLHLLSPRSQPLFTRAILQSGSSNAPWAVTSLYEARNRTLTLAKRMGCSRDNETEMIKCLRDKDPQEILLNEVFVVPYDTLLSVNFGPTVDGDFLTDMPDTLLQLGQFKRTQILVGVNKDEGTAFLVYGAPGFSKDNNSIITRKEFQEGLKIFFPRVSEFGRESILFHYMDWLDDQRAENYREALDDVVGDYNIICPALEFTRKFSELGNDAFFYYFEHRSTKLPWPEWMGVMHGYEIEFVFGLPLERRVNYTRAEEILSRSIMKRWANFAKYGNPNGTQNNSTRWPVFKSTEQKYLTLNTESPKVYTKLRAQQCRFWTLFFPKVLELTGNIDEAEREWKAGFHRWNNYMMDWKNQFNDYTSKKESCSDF
T2 sequence (P05067 672-713): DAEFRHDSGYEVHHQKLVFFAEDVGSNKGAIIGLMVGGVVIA
T1 sequence (O42275 24-633): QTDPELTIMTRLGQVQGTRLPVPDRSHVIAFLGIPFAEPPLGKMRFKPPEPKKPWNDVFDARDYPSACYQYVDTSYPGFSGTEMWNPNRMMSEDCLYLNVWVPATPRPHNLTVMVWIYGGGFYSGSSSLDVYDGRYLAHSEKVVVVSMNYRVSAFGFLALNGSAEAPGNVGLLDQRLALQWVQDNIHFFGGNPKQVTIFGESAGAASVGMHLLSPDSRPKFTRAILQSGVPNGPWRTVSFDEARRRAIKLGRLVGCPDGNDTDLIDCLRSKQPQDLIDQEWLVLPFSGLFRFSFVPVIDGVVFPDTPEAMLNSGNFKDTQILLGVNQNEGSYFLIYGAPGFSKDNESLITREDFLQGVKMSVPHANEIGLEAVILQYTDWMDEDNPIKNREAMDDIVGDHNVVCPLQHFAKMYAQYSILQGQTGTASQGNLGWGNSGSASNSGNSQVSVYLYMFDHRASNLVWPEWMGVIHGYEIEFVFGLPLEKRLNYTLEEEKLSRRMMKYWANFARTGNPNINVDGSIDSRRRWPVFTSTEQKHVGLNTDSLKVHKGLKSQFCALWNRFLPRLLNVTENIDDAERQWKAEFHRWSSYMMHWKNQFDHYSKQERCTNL

SMILES	% AA (radical-scavenging activity) [1] [%]	IC50 [2] [µM]	highest nontoxic concentration [3] [µM]	inhibition at 40 µM (Aβ1–42) [%]	IC50 [4] [µM]	EC50 [1] [µM]	rescue of cell viability after iron/ascorbate treatment [5]	highest nontoxic concentration [3, 6] [µM]	highest nontoxic concentration [3, 7] [µM]	SI (selectivity index) [4]	inhibition at 20 µM (Aβ1–42) [%]
CCN(C)C(=O)Oc1cccc(NC(=O)c2cc(OC)c(O)c(OC)c2)c1 [4AY1, 3-(4-Hydroxy-3,5-dimethoxybenzamido)phenyl ethyl(methyl)carbamate]	<50	> 200	10	20 ± 2	31 ± 2						
CCN(C)C(=O)Oc1cccc(NC(=O)C2(C)CCc3c(C)c(O)c(C)c(C)c3O2)c1 (stereo not drawn) [4AY2, 3-(6-Hydroxy-2,5,7,8-tetramethylchromane-2-carboxamido)phenyl ethyl(methyl)carbamate]	95 ± 3	69 ± 7		45 ± 4	36 ± 3	18.1 ± 0.4	capable of rescuing the cell viability; also recorded: significantly improved cell viability	1	2.5	1.9	
CCN(C)C(=O)Oc1cccc(NC(=O)/C=C/c2ccc3c(c2)OCO3)c1 [4AY3, (E)-3-(3-(Benzo[d][1,3]dioxol-5-yl)acrylamido)phenyl ethyl(methyl)carbamate]	<50	50.5 ± 0.1	5	45 ± 4	3.1 ± 0.4					16.3	
CCN(C)C(=O)Oc1cccc(NC(=O)/C=C/C=C/c2ccc3c(c2)OCO3)c1 [4AY4, 3-((2E,4E)-5-(Benzo[d][1,3]dioxol-5-yl)penta-2,4-dienamido)phenyl ethyl(methyl)carbamate]	<50	14.51 ± 0.04			15.2 ± 0.4		capable of rescuing the cell viability; also recorded: significantly improved cell viability	1	2.5	0.9	23 ± 3
CCN(C)C(=O)Oc1cccc(NC(=O)/C=C/c2ccc(O)c(O)c2)c1 [4AY5, (E)-3-(3-(3,4-Dihydroxyphenyl)acrylamido)phenyl ethyl(methyl)carbamate]	96 ± 2	110 ± 5	0.5	82 ± 5	7.2 ± 0.3	15.7 ± 0.4				15.3	
CCN(C)C(=O)Oc1cccc(NC(=O)/C=C/C=C/c2ccc(O)c(O)c2)c1 [4AY6, 3-((2E,4E)-5-(3,4-Dihydroxyphenyl)penta-2,4-dienamido)phenyl ethyl(methyl)carbamate]	93.1 ± 0.8	5 ± 1	1	75 ± 7	5.7 ± 0.6	28 ± 0.4				0.9	
CCN(C)C(=O)Oc1cccc(CNC(=O)c2cc(OC)c(O)c(OC)c2)c1 [4BY1, 3-((4-Hydroxy-3,5-dimethoxybenzamido)methyl)phenyl ethyl(methyl)carbamate]	<50	> 200	15	58 ± 6	75 ± 0.6						
CCN(C)C(=O)Oc1cccc(CNC(=O)/C=C/c2ccc3c(c2)OCO3)c1 [4BY3, (E)-3-((3-(Benzo[d][1,3]dioxol-5-yl)acrylamido)methyl)phenyl ethyl(methyl)carbamate]	<50	91 ± 6	1	29 ± 3	0.9 ± 0.2					101	
COc1cc(C(=O)Nc2cccc(OC(=O)N(C)C)c2)cc(OC)c1O [4CY1, 3-(4-Hydroxy-3,5-dimethoxybenzamido)phenyl dimethylcarbamate]	<50	> 200	5		68 ± 7						31 ± 3
COc1cc(/C=C/C(=O)CC(=O)/C=C/c2ccc(O)c(OC)c2)ccc1O [Curcumin, reference compound]				77 ± 1							
Cc1c(C)c2c(c(C)c1O)CCC(C)(C(=O)O)O2 (stereo not drawn) [Trolox, 6-hydroxy-2,5,7,8-tetramethylchromane-2-carboxylic acid, reference compound]						13.8 ± 0.2					
